Data: ChEMBL document CHEMBL5512655, “Discovery of indolylacryloyl-derived oxacins as novel potential broad-spectrum antibacterial candidates” (Eur J Med Chem, 2024)
Converted amounts (≈) assume the structure as drawn.

Legend:
Type in all cases: functional
Staphylococcus aureus [1] = assay: Antibacterial activity against methicillin-resistant Staphylococcus aureus N315 assessed as inhibition of bacterial growth measured after 24 hrs incubation
Staphylococcus aureus [2] = assay: Antibacterial activity against Staphylococcus aureus assessed as inhibition of bacterial growth measured after 24 hrs incubation
Staphylococcus aureus [3] = assay: Antibacterial activity against Staphylococcus aureus ATCC 25923 assessed as inhibition of bacterial growth measured after 24 hrs incubation
Staphylococcus aureus [4] = assay: Antibacterial activity against Staphylococcus aureus ATCC 29213 assessed as inhibition of bacterial growth measured after 24 hrs incubation
Enterococcus faecalis = assay: Antibacterial activity against Enterococcus faecalis assessed as inhibition of bacterial growth measured after 24 hrs incubation
Klebsiella pneumoniae = assay: Antibacterial activity against Klebsiella pneumonia assessed as inhibition of bacterial growth measured after 24 hrs incubation
Escherichia coli [5] = assay: Antibacterial activity against Escherichia coli assessed as inhibition of bacterial growth measured after 24 hrs incubation
Escherichia coli [6] = assay: Antibacterial activity against Escherichia coli ATCC 25922 assessed as inhibition of bacterial growth measured after 24 hrs incubation
Pseudomonas aeruginosa [7] = assay: Antibacterial activity against Pseudomonas aeruginosa assessed as inhibition of bacterial growth measured after 24 hrs incubation
Pseudomonas aeruginosa [8] = assay: Antibacterial activity against Pseudomonas aeruginosa ATCC 27853 assessed as inhibition of bacterial growth measured after 24 hrs incubation
Acinetobacter baumannii = assay: Antibacterial activity against Acinetobacter baumannii assessed as inhibition of bacterial growth measured after 24 hrs incubation

SMILES	MIC (Staphylococcus aureus [1]) [µg/mL]	MIC (Staphylococcus aureus [2]) [µg/mL]	MIC (Staphylococcus aureus [3]) [µg/mL]	MIC (Staphylococcus aureus [4]) [µg/mL]	MIC (Enterococcus faecalis) [µg/mL]	MIC (Klebsiella pneumoniae) [µg/mL]	MIC (Escherichia coli [5]) [µg/mL]	MIC (Escherichia coli [6]) [µg/mL]	MIC (Pseudomonas aeruginosa [7]) [µg/mL]	MIC (Pseudomonas aeruginosa [8]) [µg/mL]	MIC (Acinetobacter baumannii) [µg/mL]
CCn1cc(C(=O)O)c(=O)c2cc(F)c(N3CCN(C(=O)/C(C#N)=C/c4cn(CCCN5CCOCC5)c5ccccc45)CC3)cc21	0.25 (≈ 0.39 µM)	2 (≈ 3.12 µM)	0.25 (≈ 0.39 µM)	0.25 (≈ 0.39 µM)	1 (≈ 1.56 µM)	0.25 (≈ 0.39 µM)	1 (≈ 1.56 µM)	1 (≈ 1.56 µM)	0.25 (≈ 0.39 µM)	1 (≈ 1.56 µM)	0.5 (≈ 0.78 µM)
CCCn1cc(/C=C(\C#N)C(=O)N2CCN(c3cc4c(cc3F)c(=O)c(C(=O)O)cn4CC)CC2)c2ccccc21	2 (≈ 3.6 µM)	0.5 (≈ 0.9 µM)	4 (≈ 7.2 µM)	1 (≈ 1.8 µM)	1 (≈ 1.8 µM)	0.25 (≈ 0.45 µM)	0.5 (≈ 0.9 µM)	0.25 (≈ 0.45 µM)	0.5 (≈ 0.9 µM)	1 (≈ 1.8 µM)	0.25 (≈ 0.45 µM)
CCn1cc(C(=O)O)c(=O)c2cc(F)c(N3CCN(C(=O)/C(C#N)=C/c4cn(Cc5ccccc5Cl)c5ccccc45)CC3)cc21	32 (≈ 50.1 µM)	256 (≈ 401 µM)	32 (≈ 50.1 µM)	64 (≈ 100 µM)	16 (≈ 25.1 µM)	32 (≈ 50.1 µM)	1 (≈ 1.57 µM)	0.25 (≈ 0.392 µM)	16 (≈ 25.1 µM)	1 (≈ 1.57 µM)	8 (≈ 12.5 µM)
CCCCCCCCn1cc(/C=C(\C#N)C(=O)N2CCN(c3cc4c(cc3F)c(=O)c(C(=O)O)cn4CC)CC2)c2ccccc21	0.5 (≈ 0.799 µM)	1 (≈ 1.6 µM)	0.25 (≈ 0.4 µM)	1 (≈ 1.6 µM)	1 (≈ 1.6 µM)	2 (≈ 3.2 µM)	64 (≈ 102 µM)	4 (≈ 6.39 µM)	16 (≈ 25.6 µM)	32 (≈ 51.1 µM)	8 (≈ 12.8 µM)
CCn1cc(C(=O)O)c(=O)c2cc(F)c(N3CCN(C(=O)/C(C#N)=C/c4cn(Cc5cccc(Cl)c5)c5ccccc45)CC3)cc21	1 (≈ 1.57 µM)	32 (≈ 50.1 µM)	2 (≈ 3.13 µM)	4 (≈ 6.27 µM)	8 (≈ 12.5 µM)	0.5 (≈ 0.784 µM)	16 (≈ 25.1 µM)	8 (≈ 12.5 µM)	32 (≈ 50.1 µM)	0.25 (≈ 0.392 µM)	8 (≈ 12.5 µM)
CCCCCn1cc(/C=C(\C#N)C(=O)N2CCN(c3cc4c(cc3F)c(=O)c(C(=O)O)cn4CC)CC2)c2ccccc21	16 (≈ 27.4 µM)	32 (≈ 54.8 µM)	1 (≈ 1.71 µM)	8 (≈ 13.7 µM)	8 (≈ 13.7 µM)	0.5 (≈ 0.857 µM)	2 (≈ 3.43 µM)	4 (≈ 6.85 µM)	4 (≈ 6.85 µM)	0.5 (≈ 0.857 µM)	2 (≈ 3.43 µM)
CCn1cc(C(=O)O)c(=O)c2cc(F)c(N3CCN(C(=O)/C(C#N)=C/c4cn(Cc5ccc(C)cc5)c5ccccc45)CC3)cc21	1 (≈ 1.62 µM)	32 (≈ 51.8 µM)	2 (≈ 3.24 µM)	4 (≈ 6.48 µM)	8 (≈ 13 µM)	0.5 (≈ 0.809 µM)	16 (≈ 25.9 µM)	8 (≈ 13 µM)	32 (≈ 51.8 µM)	0.25 (≈ 0.405 µM)	8 (≈ 13 µM)
CCn1cc(C(=O)O)c(=O)c2cc(F)c(N3CCN(C(=O)/C(C#N)=C/c4cn(CC5CC5)c5ccccc45)CC3)cc21	0.5 (≈ 0.881 µM)	4 (≈ 7.05 µM)	1 (≈ 1.76 µM)	0.5 (≈ 0.881 µM)	1 (≈ 1.76 µM)	1 (≈ 1.76 µM)	4 (≈ 7.05 µM)	1 (≈ 1.76 µM)	1 (≈ 1.76 µM)	0.5 (≈ 0.881 µM)	2 (≈ 3.52 µM)
C=CCn1cc(C(=O)O)c(=O)c2cc(F)c(N3CCN(C(=O)/C(C#N)=C/c4cn(CC(=O)OCC)c5ccccc45)CC3)cc21	128 (≈ 209 µM)	16 (≈ 26.2 µM)	64 (≈ 105 µM)	16 (≈ 26.2 µM)	0.25 (≈ 0.409 µM)	1 (≈ 1.63 µM)	1 (≈ 1.63 µM)	32 (≈ 52.3 µM)	256 (≈ 419 µM)	4 (≈ 6.54 µM)	8 (≈ 13.1 µM)
CCCCCCn1cc(C(=O)O)c(=O)c2cc(F)c(N3CCN(C(=O)/C(C#N)=C/c4cn(CC(=O)OCC)c5ccccc45)CC3)cc21	128 (≈ 195 µM)	64 (≈ 97.6 µM)	4 (≈ 6.1 µM)	8 (≈ 12.2 µM)	0.25 (≈ 0.381 µM)	16 (≈ 24.4 µM)	32 (≈ 48.8 µM)	0.5 (≈ 0.763 µM)	1 (≈ 1.53 µM)	16 (≈ 24.4 µM)	8 (≈ 12.2 µM)
CCn1cc(/C=C(\C#N)C(=O)N2CCN(c3cc4c(cc3F)c(=O)c(C(=O)O)cn4CC)CC2)c2ccccc21	0.25 (≈ 0.462 µM)	0.25 (≈ 0.462 µM)	0.25 (≈ 0.462 µM)	0.25 (≈ 0.462 µM)	0.5 (≈ 0.923 µM)	0.25 (≈ 0.462 µM)	64 (≈ 118 µM)	2 (≈ 3.69 µM)	4 (≈ 7.39 µM)	1 (≈ 1.85 µM)	1 (≈ 1.85 µM)
CCCCCCn1cc(/C=C(\C#N)C(=O)N2CCN(c3cc4c(cc3F)c(=O)c(C(=O)O)cn4CC)CC2)c2ccccc21	0.5 (≈ 0.837 µM)	0.5 (≈ 0.837 µM)	64 (≈ 107 µM)	4 (≈ 6.69 µM)	32 (≈ 53.5 µM)	1 (≈ 1.67 µM)	0.5 (≈ 0.837 µM)	2 (≈ 3.35 µM)	16 (≈ 26.8 µM)	0.5 (≈ 0.837 µM)	16 (≈ 26.8 µM)
CCn1cc(C(=O)O)c(=O)c2cc(F)c(N3CCN(C(=O)/C(C#N)=C/c4c[nH]c5cc(C)ccc45)CC3)cc21	0.25 (≈ 0.474 µM)	0.25 (≈ 0.474 µM)	0.25 (≈ 0.474 µM)	1 (≈ 1.9 µM)	2 (≈ 3.79 µM)	0.25 (≈ 0.474 µM)	1 (≈ 1.9 µM)	0.5 (≈ 0.948 µM)	0.25 (≈ 0.474 µM)	2 (≈ 3.79 µM)	0.25 (≈ 0.474 µM)
CCn1cc(C(=O)O)c(=O)c2cc(F)c(N3CCN(C(=O)/C(C#N)=C/c4cn(CC5CCC5)c5ccccc45)CC3)cc21	0.25 (≈ 0.43 µM)	0.25 (≈ 0.43 µM)	0.25 (≈ 0.43 µM)	0.25 (≈ 0.43 µM)	0.5 (≈ 0.86 µM)	0.25 (≈ 0.43 µM)	0.5 (≈ 0.86 µM)	0.5 (≈ 0.86 µM)	0.25 (≈ 0.43 µM)	4 (≈ 6.88 µM)	0.25 (≈ 0.43 µM)
CCn1cc(C(=O)O)c(=O)c2cc(F)c(N3CCN(C(=O)/C(C#N)=C/c4cn(CC=C(C)C)c5ccccc45)CC3)cc21	8 (≈ 13.8 µM)	1 (≈ 1.72 µM)	4 (≈ 6.88 µM)	4 (≈ 6.88 µM)	1 (≈ 1.72 µM)	0.25 (≈ 0.43 µM)	64 (≈ 110 µM)	0.5 (≈ 0.86 µM)	8 (≈ 13.8 µM)	1 (≈ 1.72 µM)	2 (≈ 3.44 µM)
CCn1cc(C(=O)O)c(=O)c2cc(F)c(N3CCN(C(=O)/C(C#N)=C/c4cn(CC#N)c5ccccc45)CC3)cc21	2 (≈ 3.62 µM)	4 (≈ 7.24 µM)	0.5 (≈ 0.905 µM)	1 (≈ 1.81 µM)	1 (≈ 1.81 µM)	0.5 (≈ 0.905 µM)	2 (≈ 3.62 µM)	2 (≈ 3.62 µM)	0.5 (≈ 0.905 µM)	0.5 (≈ 0.905 µM)	1 (≈ 1.81 µM)
CCOC(=O)Cn1cc(/C=C(\C#N)C(=O)N2CCN(c3cc4c(cc3F)c(=O)c(C(=O)O)cn4Cc3ccccc3)CC2)c2ccccc21	256 (≈ 387 µM)	256 (≈ 387 µM)	256 (≈ 387 µM)	256 (≈ 387 µM)	0.25 (≈ 0.378 µM)	2 (≈ 3.02 µM)	8 (≈ 12.1 µM)	16 (≈ 24.2 µM)	256 (≈ 387 µM)	4 (≈ 6.05 µM)	4 (≈ 6.05 µM)
CCn1cc(C(=O)O)c(=O)c2cc(F)c(N3CCNCC3)cc21 [NORFLOXACIN]	0.5 (≈ 1.57 µM)	0.5 (≈ 1.57 µM)	2 (≈ 6.26 µM)	1 (≈ 3.13 µM)	0.5 (≈ 1.57 µM)	0.5 (≈ 1.57 µM)	2 (≈ 6.26 µM)	0.5 (≈ 1.57 µM)	4 (≈ 12.5 µM)	1 (≈ 3.13 µM)	1 (≈ 3.13 µM)
